Drawing on publication PMC6934184, “Selective DNA-PKcs inhibition extends the therapeutic index of localized radiotherapy and chemotherapy” (The Journal of Clinical Investigation, 2019), this text covers inhibition for 1 compound.

The assay has as its target T1, MAP2K6 (MKK6) (Homo sapiens, UniProt P52564).
T1 construct: purchased Thermo Fisher Scientific (Life Technologies) SelectScreen
Description: SelectScreen Z'LYTE. Type of assay: biochemical. The conditions noted are these: ATP 100 µM. The gist of the method: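 SelectScreen broad panel; activity (Z'LYTE, Adapta) plus binding formats. ATP: Km app for CSF1R Z'LYTE; 10 for CAMK1 Adapta. Readout = % per kinase.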

T1 sequence (P52564 whole entry): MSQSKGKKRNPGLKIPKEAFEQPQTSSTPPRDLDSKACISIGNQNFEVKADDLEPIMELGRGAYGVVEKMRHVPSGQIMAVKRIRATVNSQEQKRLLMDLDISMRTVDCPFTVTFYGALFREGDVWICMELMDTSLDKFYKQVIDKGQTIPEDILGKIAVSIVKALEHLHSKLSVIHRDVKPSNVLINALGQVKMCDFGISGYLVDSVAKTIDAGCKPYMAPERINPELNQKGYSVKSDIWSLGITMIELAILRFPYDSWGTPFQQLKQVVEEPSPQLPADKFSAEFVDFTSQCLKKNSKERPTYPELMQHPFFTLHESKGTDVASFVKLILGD

With `CN(C(=O)CN1CCOCC1)c1ccc2sc3c(-c4cccc5c(=O)cc(N6CC7CCC(C6)O7)oc45)cccc3c2c1` [NU5455], the inhibition (in general, how much of the control response was suppressed) at 1 µM is 1.8%.
